Measurements taken from patent US6355799B1, “Substituted benzene compounds, process for their preparation, and herbicidal and defoliant compositions containing them” (ISK Americas Incorporated, priority 1997, dated 2002).

How the values were obtained:
Type in all cases: in vivo
[1] = tested on: redroot pigweed (Amaranthus retroflexus, AMARE); experiment: Pre-emerge test, greenhouse herbicide activity screening; conditions: rating scale 0-100, 14 days after application
Method in brief: (§1)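 Rating: 0–100 visual injury, 14 DAA. Application: acetone, 187 l/ha, 15–1000 g ai/ha, flat-fan track sprayer with nozzle 40–45 cm above soil or canopy. Post-emerge runs used 0.25% v/v surfactant on 2–3 leaf plants.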

[2] = tested on: large crabgrass (Digitaria sanguinalis, DIGSA); experiment: as above; conditions: rating scale 0-100, 14 days after application
Method in brief: (§2)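 Compounds in acetone were track-sprayed at 187 l/ha, 15–1000 g ai/ha, onto sandy loam pots. Pre-emerge seeds were sown one day before spraying, with surface watering afterwards. Post-emerge plants were at the 2–3 leaf stage and sprayed with 0.25% v/v non-ionic surfactant. Injury was rated 0–100 at 14 days.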

[3] = tested on: sicklepod (Cassia obtusifolia, CASOB); experiment: as above; conditions: rating scale 0-100, 14 days after application
Method in brief: as §2

[4] = tested on: velvetleaf (Abutilon theophrasti, ABUTH); experiment: as above; conditions: rating scale 0-100, 14 days after application
Method in brief: as §2

[5] = tested on: ivyleaf morningglory (Ipomoea hederacea, IPOHE); experiment: as above; conditions: rating scale 0-100, 14 days after application
Method in brief: as §2

[6] = tested on: johnsongrass (Sorghum halepense, SORHA); experiment: as above; conditions: rating scale 0-100, 14 days after application
Method in brief: as §2

[7] = tested on: green foxtail (Setaria viridis, SETVI); experiment: as above; conditions: rating scale 0-100, 14 days after application
Method in brief: as §2

[8] = tested on: lambsquarters (Chenopodium album, CHEAL); experiment: as above; conditions: rating scale 0-100, 14 days after application
Method in brief: as §2

[9] = tested on: barnyardgrass (Echinochloa crus-galli, ECHCG); experiment: as above; conditions: rating scale 0-100, 14 days after application
Method in brief: as §2

[10] = tested on: upland rice (Oryza sp., var. Tebonnet, RICE); experiment: Pre-emerge test, crop safety; conditions: rating scale 0-100, 14 days after application
Method in brief: (§3)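 Fourteen days after spraying, crop and weed injury was graded visually from 0, no effect, to 100, every plant dead. Test substances were dissolved in acetone and applied at 15–1000 g ai/ha with a flat-fan nozzle. Application was either pre-emergence, one day after sowing, or post-emergence at the 2–3 leaf stage.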

[11] = tested on: field corn (Zea mays L., var. Dekalb 535, CORN); experiment: Pre-emerge test, crop safety; conditions: rating scale 0-100, 14 days after application
Method in brief: as §3

[12] = tested on: large crabgrass (Digitaria sanguinalis, DIGSA); experiment: Post-emerge test, greenhouse herbicide activity screening; conditions: rating scale 0-100 (0 no damage, 100 complete death), 14 days after application
Method in brief: as §1

[13] = tested on: sicklepod (Cassia obtusifolia, CASOB); experiment: as above; conditions: rating scale 0-100 (0 no damage, 100 complete death), 14 days after application
Method in brief: as §1

[14] = tested on: velvetleaf (Abutilon theophrasti, ABUTH); experiment: as above; conditions: rating scale 0-100 (0 no damage, 100 complete death), 14 days after application
Method in brief: as §1

[15] = tested on: ivyleaf morningglory (Ipomoea hederacea, IPOHE); experiment: as above; conditions: rating scale 0-100 (0 no damage, 100 complete death), 14 days after application
Method in brief: as §1

[16] = tested on: johnsongrass (Sorghum halepense, SORHA); experiment: as above; conditions: rating scale 0-100 (0 no damage, 100 complete death), 14 days after application
Method in brief: as §1

[17] = tested on: green foxtail (Setaria viridis, SETVI); experiment: as above; conditions: rating scale 0-100 (0 no damage, 100 complete death), 14 days after application
Method in brief: as §1

[18] = tested on: redroot pigweed (Amaranthus retroflexus, AMARE); experiment: as above; conditions: rating scale 0-100 (0 no damage, 100 complete death), 14 days after application
Method in brief: as §1

[19] = tested on: lambsquarters (Chenopodium album, CHEAL); experiment: as above; conditions: rating scale 0-100 (0 no damage, 100 complete death), 14 days after application
Method in brief: as §1

[20] = tested on: common ragweed (Ambrosia artemisizfolia L., AMBEL); experiment: as above; conditions: rating scale 0-100 (0 no damage, 100 complete death), 14 days after application
Method in brief: as §1

[21] = tested on: barnyardgrass (Echinochloa crus-galli, ECHCG); experiment: as above; conditions: rating scale 0-100 (0 no damage, 100 complete death), 14 days after application
Method in brief: as §1

[22] = tested on: upland rice (Oryza sp., var. Tebonnet, RICE); experiment: Post-emerge test, crop safety; conditions: rating scale 0-100 (0 no damage, 100 complete death), 14 days after application
Method in brief: as §2

[23] = tested on: field corn (Zea mays L., var. Dekalb 535, CORN); experiment: Post-emerge test, crop safety; conditions: rating scale 0-100 (0 no damage, 100 complete death), 14 days after application
Method in brief: as §2

CCOC(=O)C(C)(Cl)Cc1c(OC)c(Cl)cc(F)c1-n1c(=O)cc(C(F)(F)F)n(C)c1=O (centres unmarked) [14-34]
40: Post-emerge Herbicidal Activity, phytotoxicity rating CASOB ([13]; Rate 63 g ai/ha) | Post-emerge Herbicidal Activity, phytotoxicity rating AMBEL ([20]; Rate 63 g ai/ha)
99: Post-emerge Herbicidal Activity, phytotoxicity rating DIGSA ([12]; Rate 250 g ai/ha) | Post-emerge Herbicidal Activity, phytotoxicity rating ABUTH ([14]; Rate 63 g ai/ha)
70: Post-emerge Herbicidal Activity, phytotoxicity rating DIGSA ([12]; Rate 63 g ai/ha) | Post-emerge phytotoxicity rating RICE (crop damage) ([22]; Rate 250 g ai/ha)
90: Pre-emerge herbicidal activity, phytotoxicity rating DIGSA ([2]; 63 g ai/ha) | Pre-emerge herbicidal activity, phytotoxicity rating ECHCG ([9]; 250 g ai/ha) | Pre-emerge phytotoxicity rating, crop damage RICE ([10]; 250 g ai/ha) | Post-emerge Herbicidal Activity, phytotoxicity rating IPOHE ([15]; Rate 250 g ai/ha)
25: Pre-emerge phytotoxicity rating, crop damage CORN ([11]; 250 g ai/ha) | Post-emerge phytotoxicity rating RICE (crop damage) ([22]; Rate 63 g ai/ha)
95: Pre-emerge herbicidal activity, phytotoxicity rating CHEAL ([8]; 63 g ai/ha)
100: Pre-emerge herbicidal activity, phytotoxicity rating AMARE ([1]; 63 g ai/ha) | Pre-emerge herbicidal activity, phytotoxicity rating AMARE ([1]; 250 g ai/ha) | Pre-emerge herbicidal activity, phytotoxicity rating DIGSA ([2]; 250 g ai/ha) | Pre-emerge herbicidal activity, phytotoxicity rating ABUTH ([4]; 63 g ai/ha) | Pre-emerge herbicidal activity, phytotoxicity rating ABUTH ([4]; 250 g ai/ha) | Pre-emerge herbicidal activity, phytotoxicity rating SETVI ([7]; 250 g ai/ha) | Pre-emerge herbicidal activity, phytotoxicity rating CHEAL ([8]; 250 g ai/ha) | Post-emerge Herbicidal Activity, phytotoxicity rating CASOB ([13]; Rate 250 g ai/ha) | Post-emerge Herbicidal Activity, phytotoxicity rating ABUTH ([14]; Rate 250 g ai/ha) | Post-emerge Herbicidal Activity, phytotoxicity rating SETVI ([17]; Rate 63 g ai/ha) | Post-emerge Herbicidal Activity, phytotoxicity rating SETVI ([17]; Rate 250 g ai/ha) | Post-emerge Herbicidal Activity, phytotoxicity rating AMARE ([18]; Rate 63 g ai/ha) | Post-emerge Herbicidal Activity, phytotoxicity rating AMARE ([18]; Rate 250 g ai/ha) | Post-emerge Herbicidal Activity, phytotoxicity rating CHEAL ([19]; Rate 63 g ai/ha) | Post-emerge Herbicidal Activity, phytotoxicity rating CHEAL ([19]; Rate 250 g ai/ha) | Post-emerge Herbicidal Activity, phytotoxicity rating AMBEL ([20]; Rate 250 g ai/ha) | Post-emerge Herbicidal Activity, phytotoxicity rating ECHCG ([21]; Rate 63 g ai/ha) | Post-emerge Herbicidal Activity, phytotoxicity rating ECHCG ([21]; Rate 250 g ai/ha) | Post-emerge phytotoxicity rating CORN (crop damage) ([23]; Rate 250 g ai/ha)
20: Pre-emerge herbicidal activity, phytotoxicity rating CASOB ([3]; 63 g ai/ha) | Pre-emerge herbicidal activity, phytotoxicity rating ECHCG ([9]; 63 g ai/ha) | Pre-emerge phytotoxicity rating, crop damage RICE ([10]; 63 g ai/ha)
80: Post-emerge Herbicidal Activity, phytotoxicity rating SORHA ([16]; Rate 250 g ai/ha) | Post-emerge phytotoxicity rating CORN (crop damage) ([23]; Rate 63 g ai/ha)
0: Pre-emerge herbicidal activity, phytotoxicity rating SORHA ([6]; 63 g ai/ha) | Pre-emerge phytotoxicity rating, crop damage CORN ([11]; 63 g ai/ha)
60: Post-emerge Herbicidal Activity, phytotoxicity rating IPOHE ([15]; Rate 63 g ai/ha) | Post-emerge Herbicidal Activity, phytotoxicity rating SORHA ([16]; Rate 63 g ai/ha)
30: Pre-emerge herbicidal activity, phytotoxicity rating SORHA ([6]; 250 g ai/ha) | Pre-emerge herbicidal activity, phytotoxicity rating SETVI ([7]; 63 g ai/ha)
10: Pre-emerge herbicidal activity, phytotoxicity rating CASOB ([3]; 250 g ai/ha) | Pre-emerge herbicidal activity, phytotoxicity rating IPOHE ([5]; 63 g ai/ha) | Pre-emerge herbicidal activity, phytotoxicity rating IPOHE ([5]; 250 g ai/ha)

COc1c(Cl)cc(F)c(-n2c(=O)cc(C(F)(F)F)n(C)c2=O)c1CC(Cl)C(=O)OCC(F)(F)C(F)F (centres unmarked) [14-22]
70: Pre-emerge herbicidal activity, phytotoxicity rating ABUTH ([4]; 250 g ai/ha)
90: Pre-emerge herbicidal activity, phytotoxicity rating CHEAL ([8]; 250 g ai/ha) | Post-emerge Herbicidal Activity, phytotoxicity rating CHEAL ([19]; Rate 250 g ai/ha)
80: Post-emerge Herbicidal Activity, phytotoxicity rating DIGSA ([12]; Rate 63 g ai/ha) | Post-emerge Herbicidal Activity, phytotoxicity rating IPOHE ([15]; Rate 250 g ai/ha)
30: Post-emerge Herbicidal Activity, phytotoxicity rating ABUTH ([14]; Rate 63 g ai/ha) | Post-emerge Herbicidal Activity, phytotoxicity rating SETVI ([17]; Rate 63 g ai/ha)
40: Post-emerge Herbicidal Activity, phytotoxicity rating SORHA ([16]; Rate 63 g ai/ha)
10: Pre-emerge phytotoxicity rating, crop damage RICE ([10]; 250 g ai/ha) | Post-emerge Herbicidal Activity, phytotoxicity rating IPOHE ([15]; Rate 63 g ai/ha) | Post-emerge phytotoxicity rating RICE (crop damage) ([22]; Rate 250 g ai/ha) | Post-emerge phytotoxicity rating CORN (crop damage) ([23]; Rate 63 g ai/ha)
50: Pre-emerge herbicidal activity, phytotoxicity rating DIGSA ([2]; 250 g ai/ha) | Post-emerge Herbicidal Activity, phytotoxicity rating CASOB ([13]; Rate 250 g ai/ha) | Post-emerge Herbicidal Activity, phytotoxicity rating AMARE ([18]; Rate 63 g ai/ha) | Post-emerge Herbicidal Activity, phytotoxicity rating CHEAL ([19]; Rate 63 g ai/ha) | Post-emerge phytotoxicity rating CORN (crop damage) ([23]; Rate 250 g ai/ha)
95: Post-emerge Herbicidal Activity, phytotoxicity rating DIGSA ([12]; Rate 250 g ai/ha)
60: Post-emerge Herbicidal Activity, phytotoxicity rating SORHA ([16]; Rate 250 g ai/ha) | Post-emerge Herbicidal Activity, phytotoxicity rating SETVI ([17]; Rate 250 g ai/ha)
100: Pre-emerge herbicidal activity, phytotoxicity rating AMARE ([1]; 63 g ai/ha) | Pre-emerge herbicidal activity, phytotoxicity rating AMARE ([1]; 250 g ai/ha) | Post-emerge Herbicidal Activity, phytotoxicity rating ABUTH ([14]; Rate 250 g ai/ha) | Post-emerge Herbicidal Activity, phytotoxicity rating AMARE ([18]; Rate 250 g ai/ha) | Post-emerge Herbicidal Activity, phytotoxicity rating AMBEL ([20]; Rate 63 g ai/ha) | Post-emerge Herbicidal Activity, phytotoxicity rating AMBEL ([20]; Rate 250 g ai/ha) | Post-emerge Herbicidal Activity, phytotoxicity rating ECHCG ([21]; Rate 63 g ai/ha) | Post-emerge Herbicidal Activity, phytotoxicity rating ECHCG ([21]; Rate 250 g ai/ha)
0: Pre-emerge herbicidal activity, phytotoxicity rating DIGSA ([2]; 63 g ai/ha) | Pre-emerge herbicidal activity, phytotoxicity rating CASOB ([3]; 63 g ai/ha) | Pre-emerge herbicidal activity, phytotoxicity rating CASOB ([3]; 250 g ai/ha) | Pre-emerge herbicidal activity, phytotoxicity rating ABUTH ([4]; 63 g ai/ha) | Pre-emerge herbicidal activity, phytotoxicity rating IPOHE ([5]; 63 g ai/ha) | Pre-emerge herbicidal activity, phytotoxicity rating IPOHE ([5]; 250 g ai/ha) | Pre-emerge herbicidal activity, phytotoxicity rating SORHA ([6]; 63 g ai/ha) | Pre-emerge herbicidal activity, phytotoxicity rating SORHA ([6]; 250 g ai/ha) | Pre-emerge herbicidal activity, phytotoxicity rating SETVI ([7]; 63 g ai/ha) | Pre-emerge herbicidal activity, phytotoxicity rating SETVI ([7]; 250 g ai/ha) | Pre-emerge herbicidal activity, phytotoxicity rating ECHCG ([9]; 63 g ai/ha) | Pre-emerge herbicidal activity, phytotoxicity rating ECHCG ([9]; 250 g ai/ha) | Pre-emerge phytotoxicity rating, crop damage RICE ([10]; 63 g ai/ha) | Pre-emerge phytotoxicity rating, crop damage CORN ([11]; 63 g ai/ha) | Pre-emerge phytotoxicity rating, crop damage CORN ([11]; 250 g ai/ha) | Post-emerge Herbicidal Activity, phytotoxicity rating CASOB ([13]; Rate 63 g ai/ha) | Post-emerge phytotoxicity rating RICE (crop damage) ([22]; Rate 63 g ai/ha)
20: Pre-emerge herbicidal activity, phytotoxicity rating CHEAL ([8]; 63 g ai/ha)
